Results on 2 molecules are retold here after patent US11226337B2, “Chemoproteomic profiling of protein electrophilic and oxidative post-translational modifications” (Zenagem, LLC, priority 2017, dated 2022).

In assay [1] the target is T1, FASTICD5 FAST kinase domain containing (Q7L8L6) (Homo sapiens, UniProt Q7L8L6).
T1 construct: shared by both the endogenous and recombinant forms of these proteins; endogenous in cells; host or cells: HEK293T and MDA-MB-231
T1 sequence (Q7L8L6 28-764): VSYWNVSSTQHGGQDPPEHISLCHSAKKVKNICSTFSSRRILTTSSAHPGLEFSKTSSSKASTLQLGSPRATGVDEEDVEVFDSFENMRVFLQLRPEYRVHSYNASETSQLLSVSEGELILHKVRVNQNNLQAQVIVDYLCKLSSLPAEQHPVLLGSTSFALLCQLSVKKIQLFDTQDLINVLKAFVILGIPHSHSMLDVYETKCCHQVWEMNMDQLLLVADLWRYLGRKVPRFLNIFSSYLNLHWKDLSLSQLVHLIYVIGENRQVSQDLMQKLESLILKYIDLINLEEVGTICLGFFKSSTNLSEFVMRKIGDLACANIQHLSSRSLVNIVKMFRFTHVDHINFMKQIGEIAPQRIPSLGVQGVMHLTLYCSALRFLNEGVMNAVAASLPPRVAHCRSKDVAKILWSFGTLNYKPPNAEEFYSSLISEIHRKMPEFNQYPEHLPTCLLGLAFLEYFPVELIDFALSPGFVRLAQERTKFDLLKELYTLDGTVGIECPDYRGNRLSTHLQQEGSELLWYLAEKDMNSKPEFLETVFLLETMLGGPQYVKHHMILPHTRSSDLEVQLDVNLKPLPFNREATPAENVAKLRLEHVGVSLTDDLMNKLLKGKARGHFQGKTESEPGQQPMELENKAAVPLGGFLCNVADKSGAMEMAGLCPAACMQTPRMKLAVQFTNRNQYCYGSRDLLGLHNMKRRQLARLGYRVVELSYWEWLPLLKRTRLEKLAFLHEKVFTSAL
Description: SILAC RP-ABPP. Format: cell-based. As to conditions: SILAC H/L, HEK293T.

In assay [2] the target is T2, PLOD3 Procollagenlysine, 2oxoglutarate (O60568) (Homo sapiens, UniProt O60568).
T2 construct: In Situ Labelling of Cells with Hydrazine Probes for MS Experiments; endogenous in cells; host or cells: HEK293T and MDA-MB-231
T2 sequence (O60568 25-738): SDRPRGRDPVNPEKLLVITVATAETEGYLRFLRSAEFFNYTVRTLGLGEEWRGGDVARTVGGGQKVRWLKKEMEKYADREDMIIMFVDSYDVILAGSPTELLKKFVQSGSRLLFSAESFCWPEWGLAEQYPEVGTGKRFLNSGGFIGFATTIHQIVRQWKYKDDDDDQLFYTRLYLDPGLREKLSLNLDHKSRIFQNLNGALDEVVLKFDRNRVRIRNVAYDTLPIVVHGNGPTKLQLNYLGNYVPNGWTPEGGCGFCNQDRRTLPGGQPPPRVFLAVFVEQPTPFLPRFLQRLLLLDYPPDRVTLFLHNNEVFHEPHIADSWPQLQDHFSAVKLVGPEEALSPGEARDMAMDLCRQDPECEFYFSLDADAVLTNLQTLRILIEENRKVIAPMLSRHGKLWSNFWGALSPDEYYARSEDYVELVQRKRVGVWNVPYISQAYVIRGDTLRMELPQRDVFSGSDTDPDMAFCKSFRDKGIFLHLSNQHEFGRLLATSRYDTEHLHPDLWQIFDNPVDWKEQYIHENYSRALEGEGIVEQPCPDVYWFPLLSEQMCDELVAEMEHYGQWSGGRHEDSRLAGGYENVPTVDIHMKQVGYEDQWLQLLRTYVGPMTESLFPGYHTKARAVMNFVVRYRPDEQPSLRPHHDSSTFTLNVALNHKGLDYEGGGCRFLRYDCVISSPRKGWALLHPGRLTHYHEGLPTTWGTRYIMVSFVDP
The assay can be described thus: SILAC RP-ABPP. Format: cell-based. Particulars: SILAC H/L.

Take `C#CCCNC(=O)c1ccc(NN)cc1.Cl` [probe 2, N-(but-3-yn-1-yl)-4-hydrazinylbenzamide hydrochloride]: the enrichment ratioavg is reported as 10 in assay [1] (probe 2 1 mM 0.5 h vs probe 4) and 20 in assay [2] (probe 2 1 mM 0.5 h vs probe 4, HEK293T). The competition ratioavg is reported as 3 in assay [1] (probe 2 vs probe 2+10x probe 4) and 6 in assay [2] (probe 2 vs probe 2+10x probe 4, HEK293T).
With `C#CCNN.Cl` [probe 1, prop-2-yn-1-ylhydrazine hydrochloride], the enrichment ratioavg came out at 18 in assay [1] (probe 1 3 mM 0.5 h vs probe 3) and 14 in assay [2] (probe 1 3 mM 0.5 h vs probe 3, MDA-MB-231). Besides, the competition ratioavg in assay [1] (probe 1 vs probe 1+10x probe 3) came out at 3; in assay [2] (probe 1 vs probe 1+10x probe 3, MDA-MB-231) it was 2.
